Measurements: ChEMBL document CHEMBL4507260 (2021)

What was measured:
Conditions in all cases: Compound concentration 1000.0 nM
[1] = biological target: Serine/threonine-protein kinase Nek11 (Homo sapiens) (UniProt Q8NG66)
[2] = biological target: Serine/threonine-protein kinase pim-1 (Homo sapiens) (UniProt P11309)
[3] = biological target: Tyrosine-protein kinase Blk (Homo sapiens) (UniProt P51451)
[4] = biological target: Vascular endothelial growth factor receptor 2 (Homo sapiens) (UniProt P35968)
[5] = biological target: Protein kinase C iota type (Homo sapiens) (UniProt P41743)
[6] = biological target: Homeodomain-interacting protein kinase 4 (Homo sapiens) (UniProt Q8NE63)
[7] = biological target: Mitogen-activated protein kinase 12 (Homo sapiens) (UniProt P53778)
[8] = test system: Epidermal growth factor receptor (Homo sapiens), P00533 [UNDEFINED MUTATION]
[9] = biological target: Rhodopsin kinase GRK7 (Homo sapiens) (UniProt Q8WTQ7)
[10] = biological target: Phosphatidylinositol 4,5-bisphosphate 3-kinase catalytic subunit beta isoform (Homo sapiens) (UniProt P42338)
Phosphatidylinositol 4,5-bisphosphate 3-kinase catalytic subunit beta isoform (Homo sapiens), sequence (P42338 whole entry, looked up, canonical isoform): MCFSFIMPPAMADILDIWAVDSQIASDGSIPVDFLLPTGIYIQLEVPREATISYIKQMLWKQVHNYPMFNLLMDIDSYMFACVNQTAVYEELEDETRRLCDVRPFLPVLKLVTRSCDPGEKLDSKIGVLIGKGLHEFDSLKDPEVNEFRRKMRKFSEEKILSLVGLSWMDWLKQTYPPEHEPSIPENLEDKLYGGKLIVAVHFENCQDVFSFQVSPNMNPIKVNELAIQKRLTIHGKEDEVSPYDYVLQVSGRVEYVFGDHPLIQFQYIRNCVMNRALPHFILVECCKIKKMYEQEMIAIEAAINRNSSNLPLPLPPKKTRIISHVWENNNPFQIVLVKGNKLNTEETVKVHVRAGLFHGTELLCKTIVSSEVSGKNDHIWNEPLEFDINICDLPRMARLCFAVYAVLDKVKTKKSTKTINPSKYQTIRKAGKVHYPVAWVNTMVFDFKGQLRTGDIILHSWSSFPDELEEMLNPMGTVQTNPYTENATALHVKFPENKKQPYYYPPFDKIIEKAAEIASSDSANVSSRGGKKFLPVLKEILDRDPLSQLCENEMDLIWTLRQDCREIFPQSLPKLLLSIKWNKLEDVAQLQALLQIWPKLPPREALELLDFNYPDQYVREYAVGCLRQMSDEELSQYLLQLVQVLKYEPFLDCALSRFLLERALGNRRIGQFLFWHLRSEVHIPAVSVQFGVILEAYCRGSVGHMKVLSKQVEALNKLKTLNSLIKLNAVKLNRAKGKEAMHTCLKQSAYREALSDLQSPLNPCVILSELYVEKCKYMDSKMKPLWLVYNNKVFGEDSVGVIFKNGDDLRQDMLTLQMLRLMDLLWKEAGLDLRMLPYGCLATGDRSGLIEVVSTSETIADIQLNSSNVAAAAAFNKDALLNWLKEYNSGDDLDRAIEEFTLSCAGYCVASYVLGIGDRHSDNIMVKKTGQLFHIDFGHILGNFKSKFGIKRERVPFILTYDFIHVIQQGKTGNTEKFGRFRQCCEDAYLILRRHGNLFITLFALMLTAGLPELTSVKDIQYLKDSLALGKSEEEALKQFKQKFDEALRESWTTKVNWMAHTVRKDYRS

[11] = biological target: Serine/threonine-protein kinase MRCK beta (Homo sapiens) (UniProt Q9Y5S2)
[12] = biological target: Serine/threonine-protein kinase 17A (Homo sapiens) (UniProt Q9UEE5)
[13] = test system: Receptor-type tyrosine-protein kinase FLT3 (Homo sapiens), P36888 [UNDEFINED MUTATION]
[14] = biological target: Serine/threonine-protein kinase PLK2 (Homo sapiens) (UniProt Q9NYY3)
[15] = biological target: Serine/threonine-protein kinase mTOR (Homo sapiens) (UniProt P42345)
[16] = test system: Mast/stem cell growth factor receptor Kit (Homo sapiens), P10721 [V559D]
[17] = biological target: Bone morphogenetic protein receptor type-2 (Homo sapiens) (UniProt Q13873)
[18] = biological target: Receptor-interacting serine/threonine-protein kinase 4 (Homo sapiens) (UniProt P57078)
Receptor-interacting serine/threonine-protein kinase 4 (Homo sapiens), sequence (P57078 whole entry): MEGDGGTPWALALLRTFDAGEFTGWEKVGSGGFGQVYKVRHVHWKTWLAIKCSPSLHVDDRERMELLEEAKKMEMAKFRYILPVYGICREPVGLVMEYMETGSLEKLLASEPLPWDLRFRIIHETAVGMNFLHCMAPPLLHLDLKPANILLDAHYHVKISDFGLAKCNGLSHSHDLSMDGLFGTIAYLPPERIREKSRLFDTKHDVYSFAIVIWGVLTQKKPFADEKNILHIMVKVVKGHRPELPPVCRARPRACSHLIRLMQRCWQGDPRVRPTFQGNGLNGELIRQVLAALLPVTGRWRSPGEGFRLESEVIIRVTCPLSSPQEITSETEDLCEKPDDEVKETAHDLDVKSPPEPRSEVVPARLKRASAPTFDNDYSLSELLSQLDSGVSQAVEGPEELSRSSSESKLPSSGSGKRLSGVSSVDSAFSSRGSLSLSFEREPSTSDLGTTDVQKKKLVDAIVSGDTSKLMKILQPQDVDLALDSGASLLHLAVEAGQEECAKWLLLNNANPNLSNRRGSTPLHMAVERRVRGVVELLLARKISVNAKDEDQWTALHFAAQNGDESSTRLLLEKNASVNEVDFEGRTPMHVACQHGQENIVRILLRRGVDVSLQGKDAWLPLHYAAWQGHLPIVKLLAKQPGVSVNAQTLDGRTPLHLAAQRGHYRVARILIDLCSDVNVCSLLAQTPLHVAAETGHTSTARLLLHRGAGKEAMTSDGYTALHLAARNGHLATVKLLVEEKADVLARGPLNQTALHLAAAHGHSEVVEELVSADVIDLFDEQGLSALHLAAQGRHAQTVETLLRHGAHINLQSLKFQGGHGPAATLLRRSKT

[19] = biological target: Ribosomal protein S6 kinase alpha-6 (Homo sapiens) (UniProt Q9UK32)
[20] = biological target: Phosphatidylinositol 4,5-bisphosphate 3-kinase catalytic subunit gamma isoform (Homo sapiens) (UniProt P48736)
[21] = biological target: Death-associated protein kinase 3 (Homo sapiens) (UniProt O43293)
[22] = biological target: Cyclin-G-associated kinase (Homo sapiens) (UniProt O14976)
[23] = biological target: Tyrosine-protein kinase Fes/Fps (Homo sapiens) (UniProt P07332)
Tyrosine-protein kinase Fes/Fps (Homo sapiens), sequence (P07332 whole entry): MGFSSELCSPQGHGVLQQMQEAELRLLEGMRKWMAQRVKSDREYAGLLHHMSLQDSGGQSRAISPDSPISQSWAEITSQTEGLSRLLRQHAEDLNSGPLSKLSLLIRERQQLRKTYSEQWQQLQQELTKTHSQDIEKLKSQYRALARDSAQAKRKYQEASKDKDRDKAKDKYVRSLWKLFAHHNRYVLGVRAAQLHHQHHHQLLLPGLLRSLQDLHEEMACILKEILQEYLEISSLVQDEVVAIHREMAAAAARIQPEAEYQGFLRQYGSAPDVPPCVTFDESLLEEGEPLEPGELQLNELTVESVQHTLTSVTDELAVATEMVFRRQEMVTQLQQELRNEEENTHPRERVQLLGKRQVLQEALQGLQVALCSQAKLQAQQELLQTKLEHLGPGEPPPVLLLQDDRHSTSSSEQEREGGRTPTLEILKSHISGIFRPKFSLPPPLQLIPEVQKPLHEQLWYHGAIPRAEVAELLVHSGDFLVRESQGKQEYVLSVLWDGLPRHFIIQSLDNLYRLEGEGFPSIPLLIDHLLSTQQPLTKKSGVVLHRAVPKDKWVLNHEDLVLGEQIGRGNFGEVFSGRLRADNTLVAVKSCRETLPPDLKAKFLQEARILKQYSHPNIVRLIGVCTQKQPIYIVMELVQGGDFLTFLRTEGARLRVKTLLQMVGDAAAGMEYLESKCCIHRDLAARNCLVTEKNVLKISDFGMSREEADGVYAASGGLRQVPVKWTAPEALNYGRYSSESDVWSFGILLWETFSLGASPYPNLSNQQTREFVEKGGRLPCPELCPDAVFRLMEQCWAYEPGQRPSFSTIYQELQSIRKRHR

[24] = biological target: Serine/threonine-protein kinase RIO3 (Homo sapiens) (UniProt O14730)
[25] = test system: Mast/stem cell growth factor receptor Kit (Homo sapiens), P10721 [V559D,T670I]
[26] = biological target: Eukaryotic translation initiation factor 2-alpha kinase 1 (Homo sapiens) (UniProt Q9BQI3)
[27] = biological target: Phosphorylase b kinase gamma catalytic chain, skeletal muscle/heart isoform (Homo sapiens) (UniProt Q16816)
Phosphorylase b kinase gamma catalytic chain, skeletal muscle/heart isoform (Homo sapiens), sequence (Q16816 whole entry, looked up, canonical isoform): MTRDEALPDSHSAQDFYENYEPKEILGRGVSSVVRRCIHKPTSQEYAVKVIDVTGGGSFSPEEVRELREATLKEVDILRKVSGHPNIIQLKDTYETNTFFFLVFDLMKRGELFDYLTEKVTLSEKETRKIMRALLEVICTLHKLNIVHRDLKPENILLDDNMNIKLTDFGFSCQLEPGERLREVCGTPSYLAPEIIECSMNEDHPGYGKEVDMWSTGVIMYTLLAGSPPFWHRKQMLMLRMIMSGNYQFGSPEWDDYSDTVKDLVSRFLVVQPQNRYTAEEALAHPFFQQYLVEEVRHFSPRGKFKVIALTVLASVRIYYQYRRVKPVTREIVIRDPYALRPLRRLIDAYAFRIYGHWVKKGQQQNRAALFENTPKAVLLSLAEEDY

[28] = biological target: Dual specificity protein kinase CLK1 (Homo sapiens) (UniProt P49759)
[29] = biological target: Serine/threonine-protein kinase tousled-like 1 (Homo sapiens) (UniProt Q9UKI8)
[30] = biological target: Cyclin-dependent kinase-like 3 (Homo sapiens) (UniProt Q8IVW4)
Cyclin-dependent kinase-like 3 (Homo sapiens), sequence (Q8IVW4 whole entry, looked up): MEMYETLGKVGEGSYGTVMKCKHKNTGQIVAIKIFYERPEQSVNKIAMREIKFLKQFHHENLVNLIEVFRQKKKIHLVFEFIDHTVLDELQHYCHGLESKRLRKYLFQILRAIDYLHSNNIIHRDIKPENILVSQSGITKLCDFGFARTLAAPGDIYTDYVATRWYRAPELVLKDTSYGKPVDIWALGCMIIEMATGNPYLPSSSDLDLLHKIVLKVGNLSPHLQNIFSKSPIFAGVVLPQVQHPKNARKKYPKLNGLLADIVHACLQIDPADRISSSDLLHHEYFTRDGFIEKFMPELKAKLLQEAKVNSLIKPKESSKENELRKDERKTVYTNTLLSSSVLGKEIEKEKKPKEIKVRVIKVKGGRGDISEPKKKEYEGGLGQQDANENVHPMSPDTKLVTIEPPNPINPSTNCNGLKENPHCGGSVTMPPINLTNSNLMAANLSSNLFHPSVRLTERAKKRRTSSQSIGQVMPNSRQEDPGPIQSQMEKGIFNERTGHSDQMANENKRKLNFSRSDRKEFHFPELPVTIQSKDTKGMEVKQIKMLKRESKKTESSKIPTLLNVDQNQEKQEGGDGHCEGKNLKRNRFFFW

[31] = biological target: RAC-alpha serine/threonine-protein kinase (Homo sapiens) (UniProt P31749)
[32] = biological target: SRSF protein kinase 1 (Homo sapiens) (UniProt Q96SB4)
[33] = biological target: NUAK family SNF1-like kinase 1 (Homo sapiens) (UniProt O60285)
[34] = biological target: Inhibitor of nuclear factor kappa-B kinase subunit epsilon (Homo sapiens) (UniProt Q14164)
[35] = biological target: Platelet-derived growth factor receptor alpha (Homo sapiens) (UniProt P16234)
[36] = test system: Tyrosine-protein kinase ABL1 (Homo sapiens), P00519 [H396P]
[37] = biological target: TGF-beta receptor type-2 (Homo sapiens) (UniProt P37173)
[38] = biological target: Tyrosine-protein kinase Yes (Homo sapiens) (UniProt P07947)
Tyrosine-protein kinase Yes (Homo sapiens), sequence (P07947 2-543 limits assumed): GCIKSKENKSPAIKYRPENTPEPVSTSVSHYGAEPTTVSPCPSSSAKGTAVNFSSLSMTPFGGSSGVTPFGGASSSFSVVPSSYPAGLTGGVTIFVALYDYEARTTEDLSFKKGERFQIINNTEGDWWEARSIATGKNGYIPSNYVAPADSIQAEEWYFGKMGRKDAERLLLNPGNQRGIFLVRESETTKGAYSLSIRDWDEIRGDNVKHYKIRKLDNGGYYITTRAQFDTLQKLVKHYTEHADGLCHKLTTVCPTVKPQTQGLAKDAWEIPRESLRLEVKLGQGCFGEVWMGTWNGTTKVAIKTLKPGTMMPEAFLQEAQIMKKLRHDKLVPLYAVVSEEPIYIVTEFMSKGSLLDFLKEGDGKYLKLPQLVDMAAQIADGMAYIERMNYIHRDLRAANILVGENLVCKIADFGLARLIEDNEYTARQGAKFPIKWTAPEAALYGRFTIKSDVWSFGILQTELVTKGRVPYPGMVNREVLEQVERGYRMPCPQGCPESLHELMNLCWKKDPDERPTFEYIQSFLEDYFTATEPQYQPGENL

[39] = biological target: Tyrosine-protein kinase receptor Tie-1 (Homo sapiens) (UniProt P35590)
[40] = biological target: Atypical kinase COQ8B, mitochondrial (Homo sapiens) (UniProt Q96D53)
[41] = biological target: Serine/threonine-protein kinase Nek3 (Homo sapiens) (UniProt P51956)
[42] = biological target: ALK tyrosine kinase receptor (Homo sapiens) (UniProt Q9UM73)
[43] = biological target: Serine/threonine-protein kinase DCLK3 (Homo sapiens) (UniProt Q9C098)
[44] = test system: Receptor-type tyrosine-protein kinase FLT3 (Homo sapiens), P36888 [D835Y]
[45] = biological target: Mitogen-activated protein kinase 9 (Homo sapiens) (UniProt P45984)
Mitogen-activated protein kinase 9 (Homo sapiens), sequence (P45984 whole entry, looked up): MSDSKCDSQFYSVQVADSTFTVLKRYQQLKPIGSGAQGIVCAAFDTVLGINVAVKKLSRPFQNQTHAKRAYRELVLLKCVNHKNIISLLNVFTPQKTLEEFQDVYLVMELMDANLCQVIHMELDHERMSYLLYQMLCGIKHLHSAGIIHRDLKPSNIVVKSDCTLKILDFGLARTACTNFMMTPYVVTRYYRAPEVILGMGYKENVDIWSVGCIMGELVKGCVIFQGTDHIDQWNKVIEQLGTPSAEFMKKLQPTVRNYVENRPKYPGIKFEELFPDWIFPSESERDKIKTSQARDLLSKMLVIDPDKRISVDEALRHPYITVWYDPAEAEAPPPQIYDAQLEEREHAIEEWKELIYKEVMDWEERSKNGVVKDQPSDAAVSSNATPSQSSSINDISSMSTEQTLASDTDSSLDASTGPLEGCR

Measured: residual activity

Serine/threonine-protein kinase pim-1 (Homo sapiens), sequence (P11309 whole entry, looked up): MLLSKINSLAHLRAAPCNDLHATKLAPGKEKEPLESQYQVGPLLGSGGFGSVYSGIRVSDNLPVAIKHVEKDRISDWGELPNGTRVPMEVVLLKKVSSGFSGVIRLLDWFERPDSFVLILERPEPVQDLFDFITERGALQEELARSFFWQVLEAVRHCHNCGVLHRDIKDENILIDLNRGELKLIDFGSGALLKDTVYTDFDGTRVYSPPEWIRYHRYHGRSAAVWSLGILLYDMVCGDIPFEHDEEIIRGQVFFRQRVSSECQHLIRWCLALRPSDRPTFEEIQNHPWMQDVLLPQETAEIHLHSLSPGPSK

c1ccc(N2CCN(Cc3nc4ccccc4[nH]3)CC2)nc1 [ABT-724]
inactive: [1] 100% | [2] 90% | [3] 100% | [4] 100% | [5] 97% | [6] 91% | [7] 74% | [8] 100% | [9] 100% | [10] 100% | [11] 100% | [12] 100% | [13] 100% | [14] 100% | [15] 100% | [16] 100% | [17] 100% | [18] 100% | [19] 100% | [20] 100% | [21] 91% | [22] 100% | [23] 100% | [24] 100% | [25] 95% | [26] 100% | [27] 100% | [28] 100% | [29] 95% | [30] 100% | [31] 90% | [32] 100% | [33] 89% | [34] 100% | [35] 100% | [36] 87% | [37] 88% | [38] 100% | [39] 96% | [40] 100% | [41] 100% | [42] 91% | [43] 93% | [44] 100% | [45] 100%

CSc1cccnc1N1CCN(Cc2nc3ccccc3[nH]2)CC1 [A-769]
inactive: [1] 79% | [2] 100% | [3] 96% | [4] 89% | [5] 100% | [6] 100% | [7] 98% | [8] 100% | [9] 87% | [10] 74% | [11] 100% | [12] 98% | [13] 73% | [14] 71% | [15] 100% | [16] 96% | [17] 80% | [18] 66% | [19] 94% | [20] 64% | [21] 100% | [22] 99% | [23] 98% | [24] 100% | [25] 100% | [26] 93% | [27] 96% | [28] 80% | [29] 100% | [30] 100% | [31] 100% | [32] 100% | [33] 100% | [34] 81% | [35] 89% | [36] 75% | [37] 99% | [38] 100% | [39] 100% | [40] 100% | [41] 88% | [42] 70% | [43] 100% | [44] 100% | [45] 68%
